Data taken from ChEMBL document CHEMBL1130231, “Betidamino acid scan of the GnRH antagonist acyline” (J Med Chem, 1997).
Activity calls are given as the source filed them. No cut-off for these calls is given here.

Key:
Format in all cases: functional, organism-based
Rattus norvegicus [1] = experiment: Ratio of ovulated rats to total number of rats determined in a anti-ovulatory assay by administering 25 microg of compound; 0/8
Rattus norvegicus [2] = experiment: Ratio of ovulated rats to total number of rats determined in a anti-ovulatory assay by administering 10 microg of compound; 7/8
Rattus norvegicus [3] = experiment: Ratio of ovulated rats to total number of rats determined in a anti-ovulatory assay by administering 5 microg of compound; 5/8
Rattus norvegicus [4] = experiment: Ratio of ovulated rats to total number of rats determined in a anti-ovulatory assay by administering 10 microg of compound; 0/8
Rattus norvegicus [5] = experiment: Ratio of ovulated rats to total number of rats determined in a anti-ovulatory assay by administering 2.5 microg of compound; 0/8
Rattus norvegicus [6] = experiment: Ratio of ovulated rats to total number of rats determined in a anti-ovulatory assay by administering 1 microg of compound; 3/8
Rattus norvegicus [7] = experiment: Ratio of ovulated rats to total number of rats determined in a anti-ovulatory assay by administering 5 microg of compound; 1/8
Rattus norvegicus [8] = experiment: Ratio of ovulated rats to total number of rats determined in a anti-ovulatory assay by administering 2.5 microg of compound; 2/8
Rattus norvegicus [9] = experiment: Ratio of ovulated rats to total number of rats determined in a anti-ovulatory assay by administering 1 ug of compound; 2/8
Rattus norvegicus [10] = experiment: Ratio of ovulated rats to total number of rats determined in a anti-ovulatory assay by administering 1 microg of compound; 8/8
Rattus norvegicus [11] = experiment: Ratio of ovulated rats to total number of rats determined in a anti-ovulatory assay by administering 250 microg of compound; 6/8
Rattus norvegicus [12] = experiment: Ratio of ovulated rats to total number of rats determined in a anti-ovulatory assay by administering 1 microg of compound; 5/8
Rattus norvegicus [13] = experiment: Ratio of ovulated rats to total number of rats determined in a anti-ovulatory assay by administering 2.5 microg of compound; 0/4
Rattus norvegicus [14] = experiment: Ratio of ovulated rats to total number of rats determined in a anti-ovulatory assay by administering 1 microg of compound; 3/3
Rattus norvegicus [15] = experiment: Ratio of ovulated rats to total number of rats determined in a anti-ovulatory assay by administering 5 microg of compound; 2/8
Rattus norvegicus [16] = experiment: Ratio of ovulated rats to total number of rats determined in a anti-ovulatory assay by administering 2.5 microg of compound; 8/8
Rattus norvegicus [17] = experiment: Ratio of ovulated rats to total number of rats determined in a anti-ovulatory assay by administering 10 microg of compound; 1/8
Rattus norvegicus [18] = experiment: Ratio of ovulated rats to total number of rats determined in a anti-ovulatory assay by administering 10 microg of compound; 8/8
Rattus norvegicus [19] = experiment: Ratio of ovulated rats to total number of rats determined in a anti-ovulatory assay by administering 25 microg of compound; 4/8
Rattus norvegicus [20] = experiment: Ratio of ovulated rats to total number of rats determined in a anti-ovulatory assay by administering 5 microg of compound; 0/8
Rattus norvegicus [21] = experiment: Ratio of ovulated rats to total number of rats determined in a anti-ovulatory assay by administering 2.5 microg of compound; 5/5
Rattus norvegicus [22] = experiment: Ratio of ovulated rats to total number of rats determined in a anti-ovulatory assay by administering 0.5 microg of compound; 9/11
Rattus norvegicus [23] = experiment: Ratio of ovulated rats to total number of rats determined in a anti-ovulatory assay by administering 1 microg of compound; 6/17

## CC(=O)Nc1ccc(C[C@H](NC(=O)[C@H](CO)NC(=O)[C@@H](Cc2cccnc2)NC(=O)[C@@H](Cc2ccc(Cl)cc2)NC(=O)[C@H](NC(C)=O)N(C)C(=O)c2ccc3ccccc3c2)C(=O)N[C@H](Cc2ccc(NC(C)=O)cc2)C(=O)N[C@@H](CC(C)C)C(=O)N[C@@H](CCCCNC(C)C)C(=O)N2CCC[C@@H]2C(=O)N[C@H](C)C(N)=O)cc1
Rattus norvegicus [1]
  ov. rat/total: Active
Rattus norvegicus [2]
  ov. rat/total: inactive

## CC(=O)Nc1ccc(C[C@H](NC(=O)[C@H](CO)NC(=O)[C@@H](Cc2cccnc2)NC(=O)[C@@H](Cc2ccc(Cl)cc2)NC(=O)[C@@H](Cc2ccc3ccccc3c2)NC(C)=O)C(=O)N[C@H](Cc2ccc(NC(C)=O)cc2)C(=O)N[C@@H](NC(C)=O)C(=O)N[C@@H](CCCCNC(C)C)C(=O)N2CCC[C@@H]2C(=O)N[C@H](C)C(N)=O)cc1
Rattus norvegicus [3]
  ov. rat/total: Partially active
Rattus norvegicus [4]
  ov. rat/total: Active

## CC(=O)Nc1ccc(C[C@H](NC(=O)[C@H](CO)NC(=O)[C@@H](Cc2cccnc2)NC(=O)[C@@H](Cc2ccc(Cl)cc2)NC(=O)[C@@H](Cc2ccc3ccccc3c2)NC(C)=O)C(=O)N[C@H](Cc2ccc(NC(C)=O)cc2)C(=O)N[C@@H](CC(C)C)C(=O)N[C@@H](CCCCNC(C)C)C(=O)N2CCC[C@@H]2C(=O)N[C@H](N)C(N)=O)cc1
Rattus norvegicus [5]
  ov. rat/total: Active
Rattus norvegicus [6]
  ov. rat/total: Partially active

## CC(=O)Nc1ccc(C[C@H](NC(=O)[C@H](CO)NC(=O)[C@@H](Cc2cccnc2)NC(=O)[C@@H](Cc2ccc(Cl)cc2)NC(=O)[C@@H](Cc2ccc3ccccc3c2)NC(C)=O)C(=O)N[C@H](Cc2ccc(NC(C)=O)cc2)C(=O)N[C@H](C(=O)N[C@@H](CCCCNC(C)C)C(=O)N2CCC[C@@H]2C(=O)N[C@H](C)C(N)=O)N(C)C(C)=O)cc1
Rattus norvegicus [7]
  ov. rat/total: Active
Rattus norvegicus [8]
  ov. rat/total: Partially active

## CC(=O)Nc1ccc(C[C@H](NC(=O)[C@H](CO)NC(=O)[C@@H](Cc2cccnc2)NC(=O)[C@@H](Cc2ccc(Cl)cc2)NC(=O)[C@@H](NC(C)=O)N(C)C(=O)c2ccc3ccccc3c2)C(=O)N[C@H](Cc2ccc(NC(C)=O)cc2)C(=O)N[C@@H](CC(C)C)C(=O)N[C@@H](CCCCNC(C)C)C(=O)N2CCC[C@@H]2C(=O)N[C@H](C)C(N)=O)cc1 (single isomer, unassigned)
Rattus norvegicus [9]
  ov. rat/total: Partially active
Rattus norvegicus [5]
  ov. rat/total: Active

## CN[C@@H](NC(=O)[C@H]1CCCN1C(=O)[C@H](CCCCNC(C)C)NC(=O)[C@H](CC(C)C)NC(=O)[C@@H](Cc1ccc(NC(C)=O)cc1)NC(=O)[C@H](Cc1ccc(NC(C)=O)cc1)NC(=O)[C@H](CO)NC(=O)[C@@H](Cc1cccnc1)NC(=O)[C@@H](Cc1ccc(Cl)cc1)NC(=O)[C@@H](Cc1ccc2ccccc2c1)NC(C)=O)C(N)=O
Rattus norvegicus [5]
  ov. rat/total: Active
Rattus norvegicus [10]
  ov. rat/total: inactive

## CC(=O)Nc1ccc(C[C@H](NC(=O)[C@H](CO)NC(=O)[C@@H](Cc2cccnc2)NC(=O)[C@@H](NC(=O)[C@@H](Cc2ccc3ccccc3c2)NC(C)=O)N(C)C(=O)c2ccc(Cl)cc2)C(=O)N[C@H](Cc2ccc(NC(C)=O)cc2)C(=O)N[C@@H](CC(C)C)C(=O)N[C@@H](CCCCNC(C)C)C(=O)N2CCC[C@@H]2C(=O)N[C@H](C)C(N)=O)cc1 (mixture of isomers)
Rattus norvegicus [11]
  ov. rat/total: inactive

## CC(=O)Nc1ccc(C[C@@H](NC(=O)[C@H](NC(=O)c2ccc(O)cc2)NC(=O)[C@H](CO)NC(=O)[C@@H](Cc2cccnc2)NC(=O)[C@@H](Cc2ccc(Cl)cc2)NC(=O)[C@@H](Cc2ccc3ccccc3c2)NC(C)=O)C(=O)N[C@@H](CC(C)C)C(=O)N[C@@H](CCCCNC(C)C)C(=O)N2CCC[C@@H]2C(=O)N[C@H](C)C(N)=O)cc1
Rattus norvegicus [5]
  ov. rat/total: Active
Rattus norvegicus [12]
  ov. rat/total: Partially active

## CC(=O)Nc1ccc(C[C@H](NC(=O)[C@H](CO)NC(=O)[C@@H](Cc2cccnc2)NC(=O)[C@@H](Cc2ccc(Cl)cc2)NC(=O)[C@@H](Cc2ccc3ccccc3c2)NC(C)=O)C(=O)N[C@H](Cc2ccc(NC(C)=O)cc2)C(=O)N[C@@H](CC(C)C)C(=O)N[C@@H](CCCCNC(C)C)C(=O)N2CCC[C@@H]2C(=O)N[C@@H](NC=O)C(N)=O)cc1 (single isomer, unassigned)
Rattus norvegicus [13]
  ov. rat/total: Active
Rattus norvegicus [14]
  ov. rat/total: inactive

## CC(=O)Nc1ccc(C[C@@H](NC(=O)[C@H](NC(=O)[C@H](CO)NC(=O)[C@@H](Cc2cccnc2)NC(=O)[C@@H](Cc2ccc(Cl)cc2)NC(=O)[C@@H](Cc2ccc3ccccc3c2)NC(C)=O)N(C)C(=O)c2ccc(NC(C)=O)cc2)C(=O)N[C@@H](CC(C)C)C(=O)N[C@@H](CCCCNC(C)C)C(=O)N2CCC[C@@H]2C(=O)N[C@H](C)C(N)=O)cc1
Rattus norvegicus [5]
  ov. rat/total: Active
Rattus norvegicus [12]
  ov. rat/total: Partially active

## CC(=O)Nc1ccc(C[C@@H](NC(=O)[C@@H](NC(=O)c2ccc(NC(C)=O)cc2)NC(=O)[C@H](CO)NC(=O)[C@@H](Cc2cccnc2)NC(=O)[C@@H](Cc2ccc(Cl)cc2)NC(=O)[C@@H](Cc2ccc3ccccc3c2)NC(C)=O)C(=O)N[C@@H](CC(C)C)C(=O)N[C@@H](CCCCNC(C)C)C(=O)N2CCC[C@@H]2C(=O)N[C@H](C)C(N)=O)cc1
Rattus norvegicus [15]
  ov. rat/total: Partially active

## CC(=O)Nc1ccc(C[C@H](NC(=O)[C@H](CO)NC(=O)[C@@H](Cc2cccnc2)NC(=O)[C@@H](Cc2ccc(Cl)cc2)NC(=O)[C@@H](Cc2ccc3ccccc3c2)NC(C)=O)C(=O)N[C@H](Cc2ccc(NC(C)=O)cc2)C(=O)N[C@@H](CC(C)C)C(=O)N[C@@H](CCCCNC(C)C)C(=O)N2CCC[C@@H]2C(=O)N[C@@H](C)C(N)=O)cc1
Rattus norvegicus [5]
  ov. rat/total: Active
Rattus norvegicus [10]
  ov. rat/total: inactive

## CC(=O)Nc1ccc(C[C@H](NC(=O)[C@H](NC(=O)[C@@H](Cc2cccnc2)NC(=O)[C@@H](Cc2ccc(Cl)cc2)NC(=O)[C@@H](Cc2ccc3ccccc3c2)NC(C)=O)N(C)C=O)C(=O)N[C@H](Cc2ccc(NC(C)=O)cc2)C(=O)N[C@@H](CC(C)C)C(=O)N[C@@H](CCCCNC(C)C)C(=O)N2CCC[C@@H]2C(=O)N[C@H](C)C(N)=O)cc1 (single isomer, unassigned)
Rattus norvegicus [16]
  ov. rat/total: inactive
Rattus norvegicus [17]
  ov. rat/total: Active

## CC(=O)Nc1ccc(C[C@H](NC(=O)[C@H](CO)NC(=O)[C@@H](Cc2cccnc2)NC(=O)[C@@H](Cc2ccc(Cl)cc2)NC(=O)[C@@H](Cc2ccc3ccccc3c2)NC(C)=O)C(=O)N[C@H](C(=O)N[C@@H](CC(C)C)C(=O)N[C@@H](CCCCNC(C)C)C(=O)N2CCC[C@@H]2C(=O)N[C@H](C)C(N)=O)N(C)C(=O)c2ccc(NC(C)=O)cc2)cc1 (mixture of isomers)
Rattus norvegicus [18]
  ov. rat/total: inactive
Rattus norvegicus [19]
  ov. rat/total: Partially active

## CC(=O)Nc1ccc(C[C@H](NC(=O)[C@H](CO)NC(=O)[C@@H](NC(=O)c2ccncc2)NC(=O)[C@@H](Cc2ccc(Cl)cc2)NC(=O)[C@@H](Cc2ccc3ccccc3c2)NC(C)=O)C(=O)N[C@H](Cc2ccc(NC(C)=O)cc2)C(=O)N[C@@H](CC(C)C)C(=O)N[C@@H](CCCCNC(C)C)C(=O)N2CCC[C@@H]2C(=O)N[C@H](C)C(N)=O)cc1 (single isomer, unassigned)
Rattus norvegicus [4]
  ov. rat/total: Active
Rattus norvegicus [8]
  ov. rat/total: Partially active

## CC(=O)Nc1ccc(C[C@H](NC(=O)[C@@H](NC(=O)CO)NC(=O)[C@@H](Cc2cccnc2)NC(=O)[C@@H](Cc2ccc(Cl)cc2)NC(=O)[C@@H](Cc2ccc3ccccc3c2)NC(C)=O)C(=O)N[C@H](Cc2ccc(NC(C)=O)cc2)C(=O)N[C@@H](CC(C)C)C(=O)N[C@@H](CCCCNC(C)C)C(=O)N2CCC[C@@H]2C(=O)N[C@H](C)C(N)=O)cc1 (single isomer, unassigned)
Rattus norvegicus [15]
  ov. rat/total: Partially active

## CC(=O)Nc1ccc(C[C@H](NC(=O)[C@H](CO)NC(=O)[C@@H](Cc2cccnc2)NC(=O)[C@@H](Cc2ccc(Cl)cc2)NC(=O)[C@H](NC(C)=O)NC(=O)c2ccc3ccccc3c2)C(=O)N[C@H](Cc2ccc(NC(C)=O)cc2)C(=O)N[C@@H](CC(C)C)C(=O)N[C@@H](CCCCNC(C)C)C(=O)N2CCC[C@@H]2C(=O)N[C@H](C)C(N)=O)cc1
Rattus norvegicus [20]
  ov. rat/total: Active
Rattus norvegicus [21]
  ov. rat/total: inactive

## CC(=O)Nc1ccc(C[C@H](NC(=O)[C@H](CO)NC(=O)[C@@H](Cc2cccnc2)NC(=O)[C@@H](Cc2ccc(Cl)cc2)NC(=O)[C@@H](Cc2ccc3ccccc3c2)NC(C)=O)C(=O)N[C@H](Cc2ccc(NC(C)=O)cc2)C(=O)N[C@@H](CC(C)C)C(=O)N[C@@H](CCCCNC(C)C)C(=O)N2CCC[C@@H]2C(=O)N[C@H](NC=O)C(N)=O)cc1 (single isomer, unassigned)
Rattus norvegicus [22]
  ov. rat/total: inactive
Rattus norvegicus [23]
  ov. rat/total: Partially active

## CC(=O)Nc1ccc(C[C@H](NC(=O)[C@H](CO)NC(=O)[C@@H](Cc2cccnc2)NC(=O)[C@H](NC(=O)c2c[nH]nc2N)NC(=O)[C@@H](Cc2ccc3ccccc3c2)NC(C)=O)C(=O)N[C@H](Cc2ccc(NC(C)=O)cc2)C(=O)N[C@@H](CC(C)C)C(=O)N[C@@H](CCCCNC(C)C)C(=O)N2CCC[C@@H]2C(=O)N[C@H](C)C(N)=O)cc1
Rattus norvegicus [11]
  ov. rat/total: inactive
